From PubChem BioAssay (NCI)
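All cell lines were grown in 96-well plates and treated with compound for 48 hours. TGI: concentration producing complete growth inhibition.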

How the values were obtained:
Experiment in all cases: DTP human tumour cell line panel, 48 h
MDA-MB-231 breast = test system: MDA-MB-231 breast
UACC-257 melanoma = test system: UACC-257 melanoma
HCT-116 colon = test system: HCT-116 colon
SNB-19 CNS = test system: SNB-19 CNS
HOP-62 NSCLC = test system: HOP-62 NSCLC
SK-OV-3 ovarian = test system: SK-OV-3 ovarian
SF-295 CNS = test system: SF-295 CNS
SF-268 CNS = test system: SF-268 CNS
NCI-H460 lung = test system: NCI-H460 lung
LOX IMVI melanoma = test system: LOX IMVI melanoma
UACC-62 melanoma = test system: UACC-62 melanoma
CCRF-CEM leukemia = test system: CCRF-CEM leukemia
SF-539 CNS = test system: SF-539 CNS
NCI/ADR-RES ovarian = test system: NCI/ADR-RES ovarian
NCI-H23 lung = test system: NCI-H23 lung
OVCAR-5 ovarian = test system: OVCAR-5 ovarian
NCI-H226 lung = test system: NCI-H226 lung
MCF7 breast = test system: MCF7 breast
MDA-N = test system: MDA-N
OVCAR-8 ovarian = test system: OVCAR-8 ovarian
CAKI-1 renal = test system: CAKI-1 renal
OVCAR-4 ovarian = test system: OVCAR-4 ovarian
NCI-H522 lung = test system: NCI-H522 lung
SK-MEL-5 melanoma = test system: SK-MEL-5 melanoma
K-562 leukemia = test system: K-562 leukemia
MALME-3M melanoma = test system: MALME-3M melanoma
SR leukemia = test system: SR leukemia
T-47D breast = test system: T-47D breast
TK-10 renal = test system: TK-10 renal
ACHN renal = test system: ACHN renal
HCT-15 colon = test system: HCT-15 colon
SN12C renal = test system: SN12C renal
PC-3 prostate = test system: PC-3 prostate
HCC-2998 colon = test system: HCC-2998 colon
A549 NSCLC = test system: A549 NSCLC
A498 renal = test system: A498 renal
HOP-92 NSCLC = test system: HOP-92 NSCLC
SK-MEL-28 melanoma = test system: SK-MEL-28 melanoma
COLO 205 colon = test system: COLO 205 colon
DU-145 prostate = test system: DU-145 prostate
MDA-MB-435 = test system: MDA-MB-435
OVCAR-3 ovarian = test system: OVCAR-3 ovarian
HL-60(TB) leukemia = test system: HL-60(TB) leukemia
EKVX NSCLC = test system: EKVX NSCLC
M14 melanoma = test system: M14 melanoma
KM12 colon = test system: KM12 colon
UO-31 renal = test system: UO-31 renal
786-0 renal = test system: 786-0 renal
SK-MEL-2 melanoma = test system: SK-MEL-2 melanoma
HS 578T breast = test system: HS 578T breast
MOLT-4 leukemia = test system: MOLT-4 leukemia
RPMI-8226 leukemia = test system: RPMI-8226 leukemia
HT29 colon = test system: HT29 colon
SW-620 colon = test system: SW-620 colon
U251 CNS = test system: U251 CNS
IGROV1 ovarian = test system: IGROV1 ovarian
SNB-75 CNS = test system: SNB-75 CNS
RXF 393 renal = test system: RXF 393 renal
BT-549 breast = test system: BT-549 breast

O=P1(Oc2ccccc2)N(CCCl)CCN1c1ccccc1 (centres undefined)
TGI (MDA-MB-231 breast): > 100 µM
TGI (UACC-257 melanoma): > 100 µM
TGI (HCT-116 colon): > 100 µM
TGI (SNB-19 CNS): > 100 µM
TGI (HOP-62 NSCLC): > 100 µM
TGI (SK-OV-3 ovarian): > 100 µM
TGI (SF-295 CNS): > 100 µM
TGI (SF-268 CNS): > 100 µM
TGI (NCI-H460 lung): > 100 µM
TGI (LOX IMVI melanoma): > 100 µM
TGI (UACC-62 melanoma): > 100 µM
TGI (CCRF-CEM leukemia): > 100 µM
TGI (SF-539 CNS): > 100 µM
TGI (NCI/ADR-RES ovarian): > 100 µM
TGI (NCI-H23 lung): > 100 µM
TGI (OVCAR-5 ovarian): > 100 µM
TGI (NCI-H226 lung): > 100 µM
TGI (MCF7 breast): > 100 µM
TGI (MDA-N): > 100 µM
TGI (OVCAR-8 ovarian): > 100 µM
TGI (CAKI-1 renal): > 100 µM
TGI (OVCAR-4 ovarian): > 100 µM
TGI (NCI-H522 lung): > 100 µM
TGI (SK-MEL-5 melanoma): > 100 µM
TGI (K-562 leukemia): > 100 µM
TGI (MALME-3M melanoma): > 100 µM
TGI (SR leukemia): > 100 µM
TGI (T-47D breast): > 100 µM
TGI (TK-10 renal): > 100 µM
TGI (ACHN renal): > 100 µM
TGI (HCT-15 colon): > 100 µM
TGI (SN12C renal): > 100 µM
TGI (PC-3 prostate): > 100 µM
TGI (HCC-2998 colon): > 100 µM
TGI (A549 NSCLC): > 100 µM
TGI (A498 renal): > 100 µM
TGI (HOP-92 NSCLC): > 100 µM
TGI (SK-MEL-28 melanoma): > 100 µM
TGI (COLO 205 colon): > 100 µM
TGI (DU-145 prostate): > 100 µM
TGI (MDA-MB-435): > 100 µM
TGI (OVCAR-3 ovarian): > 100 µM
TGI (HL-60(TB) leukemia): > 100 µM
TGI (EKVX NSCLC): > 100 µM
TGI (M14 melanoma): > 100 µM
TGI (KM12 colon): > 100 µM
TGI (UO-31 renal): > 100 µM
TGI (786-0 renal): > 100 µM
TGI (SK-MEL-2 melanoma): > 100 µM
TGI (HS 578T breast): > 100 µM
TGI (MOLT-4 leukemia): > 100 µM
TGI (RPMI-8226 leukemia): > 100 µM
TGI (HT29 colon): > 100 µM
TGI (SW-620 colon): > 100 µM
TGI (U251 CNS): > 100 µM
TGI (IGROV1 ovarian): > 100 µM
TGI (SNB-75 CNS): > 100 µM
TGI (RXF 393 renal): > 100 µM

COc1ccc(C(CC(=O)C(C)(C)CN2CCCCC2)SCCS(=O)(=O)O)cc1 (centres undefined)
TGI (MDA-MB-231 breast): 75.1 µM
TGI (UACC-257 melanoma): > 100 µM
TGI (HCT-116 colon): > 100 µM
TGI (SNB-19 CNS): > 100 µM
TGI (HOP-62 NSCLC): > 100 µM
TGI (SK-OV-3 ovarian): > 100 µM
TGI (SF-295 CNS): > 100 µM
TGI (NCI-H460 lung): > 100 µM
TGI (UACC-62 melanoma): > 100 µM
TGI (CCRF-CEM leukemia): 55.1 µM
TGI (SF-539 CNS): 38.8 µM
TGI (NCI/ADR-RES ovarian): > 100 µM
TGI (NCI-H23 lung): 98.7 µM
TGI (OVCAR-5 ovarian): > 100 µM
TGI (NCI-H226 lung): > 100 µM
TGI (MCF7 breast): > 100 µM
TGI (MDA-N): 96.2 µM
TGI (OVCAR-8 ovarian): > 100 µM
TGI (CAKI-1 renal): > 100 µM
TGI (OVCAR-4 ovarian): > 100 µM
TGI (NCI-H522 lung): 43.4 µM
TGI (SK-MEL-5 melanoma): 62.5 µM
TGI (K-562 leukemia): > 100 µM
TGI (BT-549 breast): > 100 µM
TGI (MALME-3M melanoma): 84.8 µM
TGI (SR leukemia): 49.7 µM
TGI (TK-10 renal): > 100 µM
TGI (ACHN renal): > 100 µM
TGI (HCT-15 colon): > 100 µM
TGI (SN12C renal): > 100 µM
TGI (PC-3 prostate): > 100 µM
TGI (HCC-2998 colon): > 100 µM
TGI (A549 NSCLC): > 100 µM
TGI (A498 renal): 74.3 µM
TGI (HOP-92 NSCLC): 47.2 µM
TGI (COLO 205 colon): > 100 µM
TGI (DU-145 prostate): > 100 µM
TGI (MDA-MB-435): 52.3 µM
TGI (OVCAR-3 ovarian): 38.3 µM
TGI (HL-60(TB) leukemia): 67 µM
TGI (EKVX NSCLC): > 100 µM
TGI (M14 melanoma): 57.2 µM
TGI (KM12 colon): > 100 µM
TGI (UO-31 renal): > 100 µM
TGI (786-0 renal): 60.7 µM
TGI (SK-MEL-2 melanoma): > 100 µM
TGI (HS 578T breast): > 100 µM
TGI (MOLT-4 leukemia): 57 µM
TGI (RPMI-8226 leukemia): 63.9 µM
TGI (HT29 colon): 83.2 µM
TGI (SW-620 colon): > 100 µM
TGI (U251 CNS): > 100 µM
TGI (IGROV1 ovarian): > 100 µM
TGI (SNB-75 CNS): 91.9 µM
TGI (RXF 393 renal): > 100 µM

c1cc2c(c(NC3=NCCO3)c1)CCC2
TGI (MDA-MB-231 breast): > 100 µM
TGI (UACC-257 melanoma): > 100 µM
TGI (HCT-116 colon): > 100 µM
TGI (SNB-19 CNS): > 100 µM
TGI (HOP-62 NSCLC): > 100 µM
TGI (SK-OV-3 ovarian): > 100 µM
TGI (SF-295 CNS): > 100 µM
TGI (SF-268 CNS): > 100 µM
TGI (NCI-H460 lung): > 100 µM
TGI (LOX IMVI melanoma): > 100 µM
TGI (UACC-62 melanoma): > 100 µM
TGI (CCRF-CEM leukemia): > 100 µM
TGI (SF-539 CNS): > 100 µM
TGI (NCI/ADR-RES ovarian): > 100 µM
TGI (NCI-H23 lung): > 100 µM
TGI (OVCAR-5 ovarian): > 100 µM
TGI (NCI-H226 lung): > 100 µM
TGI (MCF7 breast): > 100 µM
TGI (MDA-N): > 100 µM
TGI (OVCAR-8 ovarian): > 100 µM
TGI (CAKI-1 renal): > 100 µM
TGI (OVCAR-4 ovarian): > 100 µM
TGI (NCI-H522 lung): > 100 µM
TGI (SK-MEL-5 melanoma): > 100 µM
TGI (K-562 leukemia): > 100 µM
TGI (MALME-3M melanoma): > 100 µM
TGI (SR leukemia): > 100 µM
TGI (T-47D breast): > 100 µM
TGI (TK-10 renal): > 100 µM
TGI (ACHN renal): > 100 µM
TGI (HCT-15 colon): > 100 µM
TGI (SN12C renal): > 100 µM
TGI (PC-3 prostate): > 100 µM
TGI (A549 NSCLC): > 100 µM
TGI (A498 renal): > 100 µM
TGI (HOP-92 NSCLC): > 100 µM
TGI (SK-MEL-28 melanoma): > 100 µM
TGI (COLO 205 colon): > 100 µM
TGI (DU-145 prostate): > 100 µM
TGI (MDA-MB-435): > 100 µM
TGI (OVCAR-3 ovarian): > 100 µM
TGI (HL-60(TB) leukemia): > 100 µM
TGI (EKVX NSCLC): > 100 µM
TGI (M14 melanoma): > 100 µM
TGI (KM12 colon): > 100 µM
TGI (UO-31 renal): > 100 µM
TGI (786-0 renal): > 100 µM
TGI (SK-MEL-2 melanoma): > 100 µM
TGI (HS 578T breast): > 100 µM
TGI (MOLT-4 leukemia): > 100 µM
TGI (RPMI-8226 leukemia): > 100 µM
TGI (HT29 colon): > 100 µM
TGI (SW-620 colon): > 100 µM
TGI (U251 CNS): > 100 µM
TGI (IGROV1 ovarian): > 100 µM
TGI (RXF 393 renal): > 100 µM
